Measurements: patent publication US20100291564A1, “Methods for Detection of Micro-Organisms” (MICROSEN MEDTECH LIMITED, priority 2007, published 2010)

Columns and labels:
Staph. aureus = assay: Sensitivity of Staph. aureus cells to antibiotic, NAD-dependent ligase detection (LiMA-2, Taq-Man real time PCR); format: cell-based, Staphylococcus aureus; conditions: 10^4 cells added to culture medium, after 4 hours in the presence of antibiotic
Protocol: FIG. 5. Sensitivity of Staph. aureus cells to antibiotic. […]
Take 1 ml fresh Staph. aureus culture (10^6 cells/μl), spin 8000 rpm 5 min, resuspend pellet in 1 ml deionised water Dilute in a series of 10 fold dilutions down to 10^2 cells/μl
After ligation step above add 2 μl of following nuclease mix to each tube:
Add 2 μl to PCR mastermix, cycles were:
The detection limit in this experiment was estimated to be between 10 and 100 cells.

E. coli = assay: Drug susceptibility testing by NAD-dependent ligase mediated PCR assay; format: cell-based, Escherichia coli; conditions: for Cycle at which PCR was positive: plus gentamicin 50 μg/ml
From the text: The PCR signal generated is related to the number of ligated molecules of the DNA substrate which in turn is related to the number of ligase molecules present. In turn, the number of molecules of ligase present is dependent on the viability of the bacterium. Upon culture of a given bacterium, if the bacteria are healthy, growing and increasing in number there will be progressively more ligase present which will generate more ligation and more PCR signal. If the bacteria are unhealthy and non-viable or dying there will be no increase in ligase on culture and the number of ligase molecules might even be expected to decrease which will be reflected in the amount of ligation and PCR signal generated. In this example we have tested the susceptibility of the organism to an antibiotic. By culturing in the presence and absence of antibiotic we can compare the signal generated from the bacterial ligase at different time points. Additionally, the experiment can be performed with and without the addition of the NAD+ cofactor. In the presence of added cofactor the ligase can cycle through many ligation steps. In the absence of added cofactor the ligase must depend on endogenous bacterial NAD+ for ligation. These two conditions, therefore are two different measures of the health of the bacterial cell
1. 10 ml of media (LB broth) containing 50 μg/ml gentamicin was inoculated with […] E. coli bacteria/ml and incubated for 3 hours. At 30 min time points 1 ml of the culture was removed and placed on ice until completion of the time course.
2. The bacteria were then pelleted by centrifugation at 6,000×g for 5 min and the supernatant removed.
3. The protocol from this stage was identical to steps 3 to 8 in example 1 except that the ligase reaction was performed with and without added NAD+.

| Molecule | fall of NAD-dependent ligase content (Staph. aureus) | Cycle at which PCR was positive (E. coli; With added NAD+, time 0 min) | Cycle at which PCR was positive (E. coli; With added NAD+, time 30 min) | Cycle at which PCR was positive (E. coli; With added NAD+, time 60 min) | Cycle at which PCR was positive (E. coli; With added NAD+, time 90 min) | Cycle at which PCR was positive (E. coli; With added NAD+, time 120 min) | Cycle at which PCR was positive (E. coli; With added NAD+, time 150 min) | Cycle at which PCR was positive (E. coli; With added NAD+, time 180 min) | Cycle at which PCR was positive (E. coli; Without added NAD+, time 0 min) | Cycle at which PCR was positive (E. coli; Without added NAD+, time 30 min) | Cycle at which PCR was positive (E. coli; Without added NAD+, time 60 min) | Cycle at which PCR was positive (E. coli; Without added NAD+, time 90 min) | Cycle at which PCR was positive (E. coli; Without added NAD+, time 120 min) | Cycle at which PCR was positive (E. coli; Without added NAD+, time 150 min) | Cycle at which PCR was positive (E. coli; Without added NAD+, time 180 min) | signal from the bacterial ligase (E. coli; in the presence of gentamicin 50 μg/ml, incubation up to 3 hours) |
| --- | --- | --- | --- | --- | --- | --- | --- | --- | --- | --- | --- | --- | --- | --- | --- | --- |
| Cc1onc(-c2ccccc2)c1C(=O)N[C@@H]1C(=O)N2[C@@H]1SC(C)(C)[C@@H]2C(=O)O [oxacillin] | > 2×10^3 fold |  |  |  |  |  |  |  |  |  |  |  |  |  |  |  |
| gentamicin |  | 26.2 | 25.1 | 25.7 | 26.2 | 27.2 | 26.8 | 26.3 | 29.5 | 29.4 | 31.6 | 30.1 | 30.3 | 29.4 | 30.1 | does not increase with incubation |
